Measured values from patent publication US9421273B2, “Silicon-containing fumaric acid esters” (Biogen Idec MA Inc., priority 2011, dated 2016).
Structures can show the parent of a compound that is named as a salt.

Experiments:
[1] = test system: Nrf2 (ARE-luciferase reporter) in DLD-1/ARE-E2 cells; assay: Nrf2 activation cell-based assay, ARE-luciferase reporter, DLD-1/ARE-E2 cell line; parameters: species or system Human; conditions: for Concentration at maximum Nrf2 activation fold change (@ [uM]) / Maximum Nrf2 Activation Fold Change: DLD-1/ARE-E2; for Maximum Nrf2 Activation Fold Change: luciferase fold change over DMSO control; for Activation of ARE-dependent signaling of the luciferase reporter construct: summary in words of Table 1 (both reporter cell lines)
Description: (§1) Human cancer cell line DLD-1 and breast cancer cell line MCF7 reporter stable cell lines were generated by transfection with a firefly luciferase reporter construct harboring the luciferase cDNA cloned downstream of eight catenated copies of the antioxidant response element (ARE: SEQ ID NO.:1).
(§2) To measure Nrf2 activation in the ARE-luciferase reporter cell lines, the cells were plated in 96-well plates at 20-50 k cells/well 24 hours prior to stimulation with the test compounds. The test compounds were prepared in dimethylsulfoxide (DMSO) and diluted with culture media to required concentrations (final DMSO concentrations <0.3%). The reporter cells were harvested 24 hours-48 hours after addition of the compounds and lysed for detection of luciferase activity. Luciferase activity in the lysates was monitored using the Bright-Glo Luciferase Assay System of Promega and Tecan Genios Pro plate reader.
(§3) Luciferase induction in the compound-treated cells was calculated as fold change over the baseline activity detected in control cultures treated with DMSO-containing media.

[2] = test system: Nrf2 (ARE-luciferase reporter) in MCF7/ARE-D3 cells; assay: Nrf2 activation cell-based assay, ARE-luciferase reporter, MCF7/ARE-D3 cell line; parameters: species or system Human; conditions: for Maximum Nrf2 Activation Fold Change: luciferase fold change over DMSO control
Description: as §1, §2, §3

Structure (SMILES)	Concentration at maximum Nrf2 activation fold change (@ [uM]) ([1]; 24 hr stimulation)	Maximum Nrf2 Activation Fold Change ([1]; 24 hr stimulation)	Concentration at maximum Nrf2 activation fold change (@ [uM]) ([1]; 48 hr stimulation)	Maximum Nrf2 Activation Fold Change ([1]; 48 hr stimulation)	Concentration at maximum Nrf2 activation fold change (@ [uM]) ([2]; 24 hr stimulation)	Maximum Nrf2 Activation Fold Change ([2]; 24 hr stimulation)	Concentration at maximum Nrf2 activation fold change (@ [uM]) ([2]; 48 hr stimulation)	Maximum Nrf2 Activation Fold Change ([2]; 48 hr stimulation)	Activation of ARE-dependent signaling of the luciferase reporter construct [1]
COC(=O)/C=C/C(=O)O [MMF, monomethyl fumarate, reference compound]	1000 µM	7	1000 µM	14	1000 µM	56	1000 µM	88	
COC(=O)/C=C/C(=O)OC[Si](OC)(OC)OC [Compound 12, methyl ((trimethoxysilyl)methyl) fumarate]	250 µM	24	375 µM	48	500 µM	49	500 µM	65	able to activate ARE-dependent signaling
COC(=O)/C=C/C(=O)OC [DMF, dimethyl fumarate, reference compound]	31 µM	11	47 µM	13	94 µM	24	94 µM	45	
COC(=O)/C=C/C(=O)O[Si](C)(C)OC(=O)/C=C/C(=O)OC [Compound 11, (E)-O,O′-(dimethylsilanediyl)dimethyl difumarate]	1000 µM	42	1000 µM	43	750 µM	97	500 µM	126	able to activate ARE-dependent signaling
